The source of these data is patent US20040072882A1 (priority 2002, published 2004).

For data set [1] the following is noted: paclitaxel comparison value; cited from earlier work.
Data set [2] concerns microtubules in interphase cells (PBMC's). The data set can be described thus: Microtubule bundle formation in mononuclear cells (PBMC's) isolated from treated patients, immunofluorescence. It is filed as in vivo, human. From the text: The activity of the drug can be assessed by measuring bundling of microtubules in interphase cells. This is considered the hallmark of activity of microtubule-stabilizing agents such as paclitaxel. The bundle formation can readily be measured by immunofluorescence or Western blotting. In a typical determination, whole blood is collected from patients and mononuclear cells (PBMC's) are isolated for evaluation of bundle formation.
In addition to monitoring toxicity and pharmacokinetics, the pharmacodynamics of treatment was also monitored. The standard criterion is the ability of the drug to effect bundling of microtubules in interphase cells. Whole blood was collected from patients and mononuclear cells (PBMC's) were isolated. To measure bundle formation, the PBMC's were resuspended in 5% FBS/PBS containing 0.75×10^6 cells/mL and used to make cytospin preparations. The cells were then fixed in 100% methanol for 10 minutes at […], air dried and stored at 4° C. prior to immunostaining. For immunostaining, the cells were blocked in 10% Normal Goat Serum in PBS for 20 minutes and incubated with a 1:100 dilution of {tilde over (□)}tubulin monoclonal antibody diluted in 5% Normal Goat Serum in PBS for 1 hour at 37° C. The slides were then rinsed in PBS and incubated with 1:200 Cy3-conjugated goat anti-mouse IgG for 1 hour in the dark before mounting. Cell numbers were quantified using a Zeiss AXIOSCOP microscope and evaluated at levels of 500 cells per slide by individual investigators.

For data set [3], the system named is advanced malignancy, either primary or metastatic. Briefly: Tumor assessment / tumor markers in patients with advanced malignancy. The data set is classed as in vivo, human. From the text:
Other criteria included adequate liver, renal and hematopoietic function, i.e., recovery from reversible effects of previous therapies, if any. Subjects included in the study provided their informed consent.
Approximately 52 patients meeting the above-described criteria were enrolled in the study. Of the patients treated, approximately 60% were male and 40% female, ranging in age from 23 to 85 years. A wide range of tumor types were included in the study, including colon, ovarian, prostate, and lung tumors. Most of the enrollees had received multiple rounds of other chemotherapies prior to entering the study.
(§1) H1/H2 blockers were given orally to the subjects 30-60 minutes prior to infusion to prevent any adverse reactions to the CREMOPHOR® in the composition. […] Thus, a dosage of 9 mg/m^2 required about 10-15 minutes of infusing, while a dose of 150 mg/m^2 required 3-4 hours of dosing. The patients were monitored by testing CBC with differential weekly, various laboratory tests every three weeks, and physical exams including neurological assessment every three weeks. Tumor assessments were made every six weeks.

A short description of data set [4]: Pharmacokinetics of epothilone D in patients (plasma levels by LC/MS/MS after intravenous infusion). It is filed as in vivo, human. How it is done: as §1
Both the pharmacokinetics and pharmacodynamics of epothilone D were measured in the subjects. Plasma concentration as a function of time was measured in the first- and second cycles at various dose levels in several subjects.
As would be expected, the levels at the end of infusion are high and taper off gradually, and the concentration levels at any particular time are dose-dependent.

The nature of data set [5]: Toxicity monitoring in the patient study. It is filed as in vivo, human. The text has this: In order to ensure that toxic limits are not exceeded, the effects of the administration on the subject are monitored. Possible effects include neurological impairment(s), which may manifest itself as cognitive/perceptual abnormalities, numbness in the limbs, difficulty in walking, dizziness, and the like. […] Other side effects may include nausea and vomiting, fatigue, rash, alopecia, and alteration in vital signs such as orthostatic hypotension.
H1/H2 blockers were given orally to the subjects 30-60 minutes prior to infusion to prevent any adverse reactions to the CREMOPHOR® in the composition. […] The patients were monitored by testing CBC with differential weekly, various laboratory tests every three weeks, and physical exams including neurological assessment every three weeks. Tumor assessments were made every six weeks.

“Also recorded” adds a separate entry of the source. Like-named read-outs stand apart in the source and are kept apart here.

Regarding `CC(=O)O[C@H]1C(=O)[C@@]2(C)[C@H]([C@H](OC(=O)c3ccccc3)[C@]3(O)C[C@H](OC(=O)[C@H](O)[C@@H](NC(=O)c4ccccc4)c4ccccc4)C(C)=C1C3(C)C)[C@]1(OC(C)=O)CO[C@@H]1C[C@@H]2O` [paclitaxel], the “volume of distribution (Vz)” value in data set [1] was 140±70 L/m^2.
By half-life is commonly meant the time in which the quantity being followed falls by half. Usually clearance stands for the volume of plasma or blood freed of the substance per unit of time. With `C/C1=C/C[C@@H](/C(C)=C/c2csc(C)n2)OC(=O)C[C@H](O)C(C)(C)C(=O)[C@H](C)[C@@H](O)[C@@H](C)CCC1` [epothilone D, Desoxyepothilone B], the results for the “percentage of PBMCs with microtubule bundles” value in data set [2] (dosage 18 mg/m^2) and in data set [2] (dosage 120 mg/m^2) were 12% and 55%, respectively. Also, the “bundle formation at low dosage” value in data set [2] (dosage as low as 18 mg/m^2) is “Substantial amounts of bundle formation”. Besides, in data set [3] (human, in vivo), the “disease status in patients receiving multiple cycles (at least four months)” value was “suggestive of stable disease”. Further, the tumor markers entry in data set [3] (ovarian, pancreatic, testicular, breast, and biliary diseases) is recorded as “Tumor marker reductions were observed”. The “dependence of the area under the curve (AUC) on dosage” value in data set [4] (dose range about 9 mg/m^2 to about 150 mg/m^2, first and second cycles) is reported as “linear correlation”. Moreover, the half-life is 8 to 10 h in data set [4] (human, in vivo, intravenous infusion, summary over study, read-out: half-life, mean value) and 8.8 ± 2.4 h in data set [4] (human, in vivo, patients treated at 100 mg/m^2, averaged, read-out: elimination half-life (converted)). The clearance in data set [4] (human, in vivo, patients treated at 100 mg/m^2, averaged, read-out: Drug clearance (converted)) was 315 mL/min. For the same compound, in data set [4] (human, in vivo, patients treated at 100 mg/m^2, averaged, read-out: volume of distribution (Vz)), the Vd was found to be 232 ± 82 L. Further, the “difference in pharmacokinetics between cycles” value in data set [4] (two cycles, three subjects at 60 mg/m^2) is recorded as “no discernable difference”. The time of toxicity entry in data set [5] (dose level between 9 mg and about 60 mg per m^2) is “start at day five and continue to day 15”. Moreover, in data set [5] (dose-dependent toxicities), the severity of toxicities result was “generally of Grade-2 in severity”. For the same compound, the onset of toxicity result in data set [5] (higher dosages such as 90 mg/m^2 and […]^2) is recorded as “as soon as the day after infusion is terminated”. Moreover, the myelosuppression result in data set [5] (human, in vivo) is reported as “generally not been seen; also recorded: No clear evidence of myelosuppression was observed”.
